Tested on: 556581-035-R-J1-PDC complex spheroid viability
Assay: Anticancer human tumor 556581-035-R-J1-PDC patient-derived ovarian carcinoma cell line growth inhibition
Settings: for IC50: curve of first compound; for viability, T/C: stronger effect = lower value
Procedure, shortened: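 Drug combinations with the LSD1 inhibitor iadademstat tested on tumor cells co-cultured as spheroids with endothelial cells and mesenchymal stem cells. Concentrations descended in half-log increments from clinical Cmax or 10 microM.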

[1] = second compound 0.1 µM, first compound 0.000316 µM
[2] = second compound 0.1 µM, first compound 0.001 µM
[3] = second compound 0.1 µM, first compound 0.00316 µM
[4] = second compound 0.1 µM, first compound 0.01 µM
[5] = second compound 0.1 µM, first compound 0.0316 µM
[6] = second compound 0.1 µM, first compound 0.1 µM
[7] = second compound 0.316 µM, first compound 0.000316 µM
[8] = second compound 0.316 µM, first compound 0.001 µM
[9] = second compound 0.316 µM, first compound 0.00316 µM
[10] = second compound 0.316 µM, first compound 0.01 µM
[11] = second compound 0.316 µM, first compound 0.0316 µM
[12] = second compound 0.316 µM, first compound 0.1 µM
[13] = second compound 1 µM, first compound 0.000316 µM
[14] = second compound 1 µM, first compound 0.001 µM
[15] = second compound 1 µM, first compound 0.00316 µM
[16] = second compound 1 µM, first compound 0.01 µM
[17] = second compound 1 µM, first compound 0.0316 µM
[18] = second compound 1 µM, first compound 0.1 µM
[19] = second compound 3.16 µM, first compound 0.000316 µM
[20] = second compound 3.16 µM, first compound 0.001 µM
[21] = second compound 3.16 µM, first compound 0.00316 µM
[22] = second compound 3.16 µM, first compound 0.01 µM
[23] = second compound 3.16 µM, first compound 0.0316 µM
[24] = second compound 3.16 µM, first compound 0.1 µM
[25] = second compound 10 µM, first compound 0.000316 µM
[26] = second compound 10 µM, first compound 0.001 µM
[27] = second compound 10 µM, first compound 0.00316 µM
[28] = second compound 10 µM, first compound 0.01 µM
[29] = second compound 10 µM, first compound 0.0316 µM
[30] = second compound 10 µM, first compound 0.1 µM
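Note: spheroids exposed to agents for seven days.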
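Throughout, for viability, T/C: 100% = DMSO vehicle control wells.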

SMILES	IC50 (second compound 0.1 µM) [nM]	IC50 (second compound 0.316 µM) [nM]	IC50 (second compound 1 µM) [nM]	IC50 (second compound 3.16 µM) [nM]	IC50 (second compound 10 µM) [nM]	viability, T/C [3] [%]	viability, T/C [4] [%]	viability, T/C [5] [%]	viability, T/C [6] [%]	viability, T/C [9] [%]	viability, T/C [10] [%]	viability, T/C [11] [%]	viability, T/C [12] [%]	viability, T/C [15] [%]	viability, T/C [16] [%]	viability, T/C [17] [%]	viability, T/C [18] [%]	viability, T/C [21] [%]	viability, T/C [22] [%]	viability, T/C [23] [%]	other results
CC(C)CC(NC(=O)C(Cc1ccccc1)NC(=O)c1cnccn1)B(O)O (stereo not given) + NC1CCC(NC2CC2c2ccccc2)CC1	< 0.316	< 0.316	< 0.316	< 0.316	< 0.316	0.13	0.13	0.08	0.24	0.63	0.39	0.44	1.89	0.91	0.17	0.08	0.43	0.13	0.07	0.75	viability, T/C [1]: 7.87%; viability, T/C [2]: 0.11%; viability, T/C [7]: 7.18%; viability, T/C [8]: 0.45%; viability, T/C [13]: 11.7%; viability, T/C [14]: 0.44%; viability, T/C [19]: 7.91%; viability, T/C [20]: 0.49%; viability, T/C [24]: 0.19%; viability, T/C [25]: 5.64%; viability, T/C [26]: 0.22%; viability, T/C [27]: 0.25%; viability, T/C [28]: 0.49%; viability, T/C [29]: 0.46%; viability, T/C [30]: 0.24%
CC(C)CC(NC(=O)CNC(=O)c1cc(Cl)ccc1Cl)B1OC(=O)CC(CC(=O)O)(C(=O)O)O1 (stereo not given) + NC1CCC(NC2CC2c2ccccc2)CC1	4.01	4.35	4.48	4.6	3.25	62.3	3.38	0.24	0.3	67.6	4.37	0.84	0.84	69.7	4.47	0.33	0.17	72.4	3.59	0.33	viability, T/C [1]: 90.7%; viability, T/C [2]: 99.5%; viability, T/C [7]: 95.5%; viability, T/C [8]: 93.4%; viability, T/C [13]: 86.2%; viability, T/C [14]: 88%; viability, T/C [19]: 91.3%; viability, T/C [20]: 86%; viability, T/C [24]: 0.6%; viability, T/C [25]: 72.3%; viability, T/C [26]: 90.1%; viability, T/C [27]: 51.2%; viability, T/C [28]: 2.53%; viability, T/C [29]: 0.48%; viability, T/C [30]: 0.7%
COc1cc(Nc2ncc3c(n2)-c2ccc(Cl)cc2C(c2c(F)cccc2OC)=NC3)ccc1C(=O)O + NC1CCC(NC2CC2c2ccccc2)CC1	360	307	253	213	143	67.5	59.8	58.4	56.1	65.1	67.8	63.9	55	62.3	60.6	57	57.2	66.5	66.4	61.4	viability, T/C (second compound 0.1 µM, first compound 0.316 µM): 54.9%; viability, T/C (second compound 0.1 µM, first compound 1 µM): 38.6%; viability, T/C (second compound 0.316 µM, first compound 0.316 µM): 50.1%; viability, T/C (second compound 0.316 µM, first compound 1 µM): 39.3%; viability, T/C (second compound 1 µM, first compound 0.316 µM): 46.9%; viability, T/C (second compound 1 µM, first compound 1 µM): 41.4%; viability, T/C [24]: 49%; viability, T/C (second compound 3.16 µM, first compound 0.316 µM): 53%; viability, T/C (second compound 3.16 µM, first compound 1 µM): 35.3%; viability, T/C [27]: 58.6%; viability, T/C [28]: 54.6%; viability, T/C [29]: 58.5%; viability, T/C [30]: 50.3%; viability, T/C (second compound 10 µM, first compound 0.316 µM): 46%; viability, T/C (second compound 10 µM, first compound 1 µM): 36.8%
